In patent US20230365546A1, “5-SUBSTITUTED INDOLE 3-AMIDE DERIVATIVES, PREPARATION METHOD AND USE THEREOF” (ORIGIANT PHARMACEUTICAL CO., LTD, priority 2020, published 2023):

Experiments:
Experiment in all cases: Kinase Profiler 10 μM panel
Flt1(h) = Flt1(h) (Homo sapiens (Human), UniProt P17948)
Protocol: (§1) In vitro kinase assays were conducted using Kinase Profiler services provided by Eurofins. The experimental method was as follows: the small molecule compound to be tested (0.001-10 μM), the protein kinase to be tested were incubated with a buffer containing substrate, 10 mM magnesium acetate, and [γ-^33P-ATP], the reaction was started by adding Mg\TPmix, after incubation for a period of time at room temperature, a 3% phosphate solution was added to the buffer to stop the reaction. Subsequently, 10 μL of the reaction mixture was quantitatively pipetted onto P30 filter paper, which was washed three times with 75 mM phosphate solution and then once with methanol. The P30 filter paper was air-dried and scintillation fluid was added for scintillation counting.

Flt3(h) = Flt3(h) (Homo sapiens (Human), UniProt P36888)
Protocol: as §1

Abl(T315I)(h) = Abl(T315I)(h) (Homo sapiens (Human), UniProt P00519, T315I)
Protocol: as §1

[1] = biological target: PI3 Kinase (p110b/p85a)(m) (Mus musculus (Mouse), UniProt Q8BTI9)
Protocol: as §1

[2] = biological target: PI3 Kinase (p110d/p85a)(h) (Homo sapiens (Human), UniProt O00329)
Protocol: as §1

GRK3(h) = GRK3(h) (Homo sapiens (Human), UniProt P35626)
Protocol: as §1

GRK6(h) = GRK6(h) (Homo sapiens (Human), UniProt P43250)
Protocol: as §1

HIPK1(h) = HIPK1(h) (Homo sapiens (Human), UniProt Q86Z02)
Protocol: as §1

IKKß(h) = IKKß(h) (Homo sapiens (Human), UniProt O14920)
Protocol: as §1

PKCζ(h) = PKCζ(h) (Homo sapiens (Human), UniProt Q05513)
Protocol: as §1

BrSK1(h) = BrSK1(h) (Homo sapiens (Human), UniProt Q8TDC3)
Protocol: as §1

IRE1(h) = IRE1(h) (Homo sapiens (Human), UniProt O75460)
Protocol: as §1

CaMKIIβ(h) = CaMKIIβ(h) (Homo sapiens (Human), UniProt Q13554)
Protocol: as §1

PKG1β(h) = PKG1β(h) (Homo sapiens (Human), UniProt Q13976)
Protocol: as §1

PRAK(h) = PRAK(h) (Homo sapiens (Human), UniProt Q8IW41)
Protocol: as §1

Lck(h) = Lck(h) (Homo sapiens (Human), UniProt P06239)
Protocol: as §1

ROCK-II(h) = ROCK-II(h) (Homo sapiens (Human), UniProt O75116)
Protocol: as §1

MAPK2(m) = MAPK2(m) (Mus musculus (Mouse), UniProt P63085)
Protocol: as §1

Rsk1(r) = Rsk1(r) (Rattus norvegicus (Rat), UniProt Q63531)
Protocol: as §1

CDKL1(h) = CDKL1(h) (Homo sapiens (Human), UniProt Q00532)
Protocol: as §1

MARK3(h) = MARK3(h) (Homo sapiens (Human), UniProt P27448)
Protocol: as §1

SAPK2b(h) = SAPK2b(h) (Homo sapiens (Human), UniProt Q15759)
Protocol: as §1

SIK3(h) = SIK3(h) (Homo sapiens (Human), UniProt Q9Y2K2)
Protocol: as §1

SLK(h) = SLK(h) (Homo sapiens (Human), UniProt Q9H2G2)
Protocol: as §1

STK32B(h) = STK32B(h) (Homo sapiens (Human), UniProt Q9NY57)
Protocol: as §1

CRIK(h) = CRIK(h) (Homo sapiens (Human), UniProt O14578)
Protocol: as §1

eEF-2K(h) = eEF-2K(h) (Homo sapiens (Human), UniProt O00418)
Protocol: as §1

NIM1(h) = NIM1(h) (Homo sapiens (Human), UniProt Q8IY84)
Protocol: as §1

TTBK2(h) = TTBK2(h) (Homo sapiens (Human), UniProt Q6IQ55)
Protocol: as §1

EphB1(h) = EphB1(h) (Homo sapiens (Human), UniProt P54762)
Protocol: as §1

ULK2(h) = ULK2(h) (Homo sapiens (Human), UniProt Q8IYT8)
Protocol: as §1

VRK2(h) = VRK2(h) (Homo sapiens (Human), UniProt Q86Y07)
Protocol: as §1

[3] = biological target: PI3 Kinase (p110a(E542K)/p85a)(m) (Mus musculus (Mouse), UniProt P42337, E542K)
Protocol: as §1

Flt3(h), sequence (P36888 27-993): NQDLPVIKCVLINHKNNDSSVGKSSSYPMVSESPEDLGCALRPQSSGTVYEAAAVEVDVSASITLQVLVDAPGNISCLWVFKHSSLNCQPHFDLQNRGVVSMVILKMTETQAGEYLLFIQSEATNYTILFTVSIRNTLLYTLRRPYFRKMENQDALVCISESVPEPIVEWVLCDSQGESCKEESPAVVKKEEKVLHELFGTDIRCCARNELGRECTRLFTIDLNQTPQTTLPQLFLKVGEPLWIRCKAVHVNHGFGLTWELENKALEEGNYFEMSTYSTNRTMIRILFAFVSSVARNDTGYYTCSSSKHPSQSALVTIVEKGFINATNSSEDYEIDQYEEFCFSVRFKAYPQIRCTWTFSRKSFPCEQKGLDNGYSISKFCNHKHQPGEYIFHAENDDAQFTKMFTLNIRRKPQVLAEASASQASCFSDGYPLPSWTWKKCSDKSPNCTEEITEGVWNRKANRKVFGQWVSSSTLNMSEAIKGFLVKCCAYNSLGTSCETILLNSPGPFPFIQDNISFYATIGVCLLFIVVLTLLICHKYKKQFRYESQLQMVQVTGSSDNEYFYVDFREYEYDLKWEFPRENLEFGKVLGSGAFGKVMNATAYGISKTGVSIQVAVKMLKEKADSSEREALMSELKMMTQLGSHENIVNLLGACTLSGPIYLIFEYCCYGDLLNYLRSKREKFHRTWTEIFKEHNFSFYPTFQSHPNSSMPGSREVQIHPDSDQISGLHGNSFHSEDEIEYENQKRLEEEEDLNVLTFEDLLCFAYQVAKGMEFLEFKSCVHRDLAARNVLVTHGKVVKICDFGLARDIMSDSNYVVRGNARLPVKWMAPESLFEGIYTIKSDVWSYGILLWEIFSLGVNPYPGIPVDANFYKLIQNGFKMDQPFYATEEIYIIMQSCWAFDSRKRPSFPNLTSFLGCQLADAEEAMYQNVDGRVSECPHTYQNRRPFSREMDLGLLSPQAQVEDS
CaMKIIβ(h), sequence (Q13554 whole entry): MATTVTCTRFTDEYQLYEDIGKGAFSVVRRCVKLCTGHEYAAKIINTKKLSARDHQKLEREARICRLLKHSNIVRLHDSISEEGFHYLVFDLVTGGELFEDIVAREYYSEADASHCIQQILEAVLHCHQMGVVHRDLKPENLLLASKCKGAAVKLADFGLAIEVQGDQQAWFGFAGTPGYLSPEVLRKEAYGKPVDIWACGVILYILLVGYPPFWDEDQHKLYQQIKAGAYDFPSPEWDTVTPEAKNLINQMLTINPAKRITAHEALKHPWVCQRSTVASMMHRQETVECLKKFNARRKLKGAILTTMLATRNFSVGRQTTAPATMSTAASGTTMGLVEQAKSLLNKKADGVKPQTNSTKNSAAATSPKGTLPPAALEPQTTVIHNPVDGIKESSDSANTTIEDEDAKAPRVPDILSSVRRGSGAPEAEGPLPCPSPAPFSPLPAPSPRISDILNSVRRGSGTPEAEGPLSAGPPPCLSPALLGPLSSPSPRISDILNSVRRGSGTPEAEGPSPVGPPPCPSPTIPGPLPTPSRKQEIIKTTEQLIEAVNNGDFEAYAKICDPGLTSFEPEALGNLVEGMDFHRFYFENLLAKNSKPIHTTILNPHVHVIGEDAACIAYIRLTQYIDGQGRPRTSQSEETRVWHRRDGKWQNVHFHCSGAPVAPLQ
CDKL1(h), sequence (Q00532 whole entry): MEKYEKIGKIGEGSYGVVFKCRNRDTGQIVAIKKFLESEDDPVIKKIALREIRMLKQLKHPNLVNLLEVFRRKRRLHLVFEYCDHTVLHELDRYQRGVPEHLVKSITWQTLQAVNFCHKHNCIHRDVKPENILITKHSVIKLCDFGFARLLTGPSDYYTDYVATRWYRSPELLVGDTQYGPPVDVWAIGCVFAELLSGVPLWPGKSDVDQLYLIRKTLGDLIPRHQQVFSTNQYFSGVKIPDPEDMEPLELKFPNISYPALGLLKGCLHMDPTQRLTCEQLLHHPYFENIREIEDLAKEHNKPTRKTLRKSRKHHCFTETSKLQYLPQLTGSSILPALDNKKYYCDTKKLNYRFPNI
STK32B(h), sequence (Q9NY57 whole entry): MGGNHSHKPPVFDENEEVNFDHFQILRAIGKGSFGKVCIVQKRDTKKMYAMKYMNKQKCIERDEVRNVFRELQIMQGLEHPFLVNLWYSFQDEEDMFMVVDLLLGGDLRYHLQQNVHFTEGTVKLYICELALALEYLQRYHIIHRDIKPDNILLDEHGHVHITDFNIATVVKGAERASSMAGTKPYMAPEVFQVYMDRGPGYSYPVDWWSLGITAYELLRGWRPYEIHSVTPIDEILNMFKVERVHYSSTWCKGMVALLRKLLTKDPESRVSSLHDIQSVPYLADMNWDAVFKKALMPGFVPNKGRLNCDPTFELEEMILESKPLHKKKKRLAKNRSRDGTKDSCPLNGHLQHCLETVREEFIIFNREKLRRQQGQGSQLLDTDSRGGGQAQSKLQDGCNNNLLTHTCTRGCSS
GRK6(h), sequence (P43250 whole entry): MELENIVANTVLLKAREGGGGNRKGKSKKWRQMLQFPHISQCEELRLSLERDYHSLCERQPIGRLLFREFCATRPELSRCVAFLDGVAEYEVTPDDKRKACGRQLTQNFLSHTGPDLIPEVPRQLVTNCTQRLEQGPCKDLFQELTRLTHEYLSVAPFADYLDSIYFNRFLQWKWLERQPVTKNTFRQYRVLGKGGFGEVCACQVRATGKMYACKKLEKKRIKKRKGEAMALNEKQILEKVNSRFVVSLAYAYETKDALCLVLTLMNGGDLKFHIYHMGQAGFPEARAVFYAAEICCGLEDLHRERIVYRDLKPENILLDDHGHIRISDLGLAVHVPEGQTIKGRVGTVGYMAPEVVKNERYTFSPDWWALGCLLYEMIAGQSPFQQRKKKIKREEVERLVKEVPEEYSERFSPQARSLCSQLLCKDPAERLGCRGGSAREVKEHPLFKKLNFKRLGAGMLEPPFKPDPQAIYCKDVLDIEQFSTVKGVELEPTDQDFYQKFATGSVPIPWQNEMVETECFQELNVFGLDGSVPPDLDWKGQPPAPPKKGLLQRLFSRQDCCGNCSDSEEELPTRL
EphB1(h), sequence (P54762 18-984): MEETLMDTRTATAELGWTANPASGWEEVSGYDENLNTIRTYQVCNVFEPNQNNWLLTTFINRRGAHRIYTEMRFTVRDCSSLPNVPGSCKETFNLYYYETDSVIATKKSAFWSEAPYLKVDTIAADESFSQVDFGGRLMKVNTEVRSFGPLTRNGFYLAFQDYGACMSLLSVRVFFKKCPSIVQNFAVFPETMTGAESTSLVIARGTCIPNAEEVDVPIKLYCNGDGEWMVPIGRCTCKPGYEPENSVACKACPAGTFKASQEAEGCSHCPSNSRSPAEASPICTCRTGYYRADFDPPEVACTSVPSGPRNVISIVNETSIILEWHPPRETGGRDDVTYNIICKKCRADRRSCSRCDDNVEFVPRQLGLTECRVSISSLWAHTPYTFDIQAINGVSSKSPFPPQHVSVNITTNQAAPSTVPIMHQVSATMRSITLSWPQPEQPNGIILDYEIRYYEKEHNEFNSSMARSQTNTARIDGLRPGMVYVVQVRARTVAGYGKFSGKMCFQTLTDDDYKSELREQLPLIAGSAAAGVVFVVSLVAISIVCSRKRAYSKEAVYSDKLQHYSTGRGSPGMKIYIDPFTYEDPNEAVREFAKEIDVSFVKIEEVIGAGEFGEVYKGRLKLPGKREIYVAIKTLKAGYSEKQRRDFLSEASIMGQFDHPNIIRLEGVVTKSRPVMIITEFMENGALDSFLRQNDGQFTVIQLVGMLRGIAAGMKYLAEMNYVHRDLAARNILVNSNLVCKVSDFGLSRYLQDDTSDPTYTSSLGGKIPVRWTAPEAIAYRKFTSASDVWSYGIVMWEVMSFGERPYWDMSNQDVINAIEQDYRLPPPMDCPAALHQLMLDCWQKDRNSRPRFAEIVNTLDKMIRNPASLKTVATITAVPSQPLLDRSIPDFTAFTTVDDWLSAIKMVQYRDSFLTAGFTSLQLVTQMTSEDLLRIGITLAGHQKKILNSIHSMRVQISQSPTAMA
PKCζ(h), sequence (Q05513 whole entry): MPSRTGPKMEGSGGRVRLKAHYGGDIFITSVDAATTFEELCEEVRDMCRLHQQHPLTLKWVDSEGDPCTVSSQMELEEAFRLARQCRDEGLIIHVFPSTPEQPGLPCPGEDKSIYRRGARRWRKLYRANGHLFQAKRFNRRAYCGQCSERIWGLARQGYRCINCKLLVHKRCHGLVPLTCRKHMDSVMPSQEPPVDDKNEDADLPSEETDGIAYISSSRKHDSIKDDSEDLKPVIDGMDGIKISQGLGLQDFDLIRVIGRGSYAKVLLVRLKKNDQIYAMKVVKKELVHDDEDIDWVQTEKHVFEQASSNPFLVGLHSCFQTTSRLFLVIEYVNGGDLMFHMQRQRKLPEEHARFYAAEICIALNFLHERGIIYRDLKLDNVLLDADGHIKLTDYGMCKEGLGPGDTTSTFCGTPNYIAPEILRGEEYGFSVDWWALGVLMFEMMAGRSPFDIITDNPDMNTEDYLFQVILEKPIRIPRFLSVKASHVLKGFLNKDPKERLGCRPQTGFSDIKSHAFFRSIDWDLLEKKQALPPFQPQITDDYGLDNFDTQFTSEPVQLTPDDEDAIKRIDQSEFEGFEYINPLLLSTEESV
VRK2(h), sequence (Q86Y07 whole entry): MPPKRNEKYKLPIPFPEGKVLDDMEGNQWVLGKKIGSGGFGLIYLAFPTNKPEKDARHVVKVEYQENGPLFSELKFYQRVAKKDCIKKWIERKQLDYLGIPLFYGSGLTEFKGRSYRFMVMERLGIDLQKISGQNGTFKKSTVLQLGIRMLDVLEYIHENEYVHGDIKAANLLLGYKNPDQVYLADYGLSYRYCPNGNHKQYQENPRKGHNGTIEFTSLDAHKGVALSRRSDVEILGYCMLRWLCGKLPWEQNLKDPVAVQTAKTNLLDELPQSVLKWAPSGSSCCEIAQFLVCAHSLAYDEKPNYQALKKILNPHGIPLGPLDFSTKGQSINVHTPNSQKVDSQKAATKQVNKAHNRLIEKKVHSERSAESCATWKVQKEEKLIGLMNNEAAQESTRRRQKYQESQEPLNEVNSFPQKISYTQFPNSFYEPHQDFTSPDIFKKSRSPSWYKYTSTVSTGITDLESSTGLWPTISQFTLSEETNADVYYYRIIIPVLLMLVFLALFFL

C[C@H](NC(=O)c1c[nH]c2ccc(-c3ccc4nc(NC(=O)C5CC5)sc4c3)cc12)c1cccc(F)c1 [Compound 34, (S)-5-(2-(cyclopropanecarboxamido)benzo[d]thiazol-6-yl)-N-(1-(3-fluorophenyl)ethyl)-1H-indole-3-carboxamide] gave an Inhibition ratio (Flt1(h)) of 100%, an Inhibition ratio (Flt3(h)) of 79% and an Inhibition ratio (Abl(T315I)(h)) of 101%. The Inhibition ratio [1] was 15%, the Inhibition ratio [2] was 54% and the Inhibition ratio (GRK3(h)) was −1%. For the same molecule, the Inhibition ratio (GRK6(h)) was 0%, the Inhibition ratio (HIPK1(h)) was 68% and the Inhibition ratio (IKKß(h); IKKß(h)) was 12%. For the same molecule, the Inhibition ratio (PKCζ(h)) was 10%, the Inhibition ratio (BrSK1(h)) was −28% and the Inhibition ratio (IRE1(h)) was 16%. It also gave an Inhibition ratio (CaMKIIβ(h)) of 21%, an Inhibition ratio (PKG1β(h)) of 7% and an Inhibition ratio (PRAK(h)) of 27%. For the same molecule, the Inhibition ratio (Lck(h)) was 65%, the Inhibition ratio (ROCK-II(h)) was 11% and the Inhibition ratio (MAPK2(m)) was 12%. It also gave an Inhibition ratio (Rsk1(r)) of 45%, an Inhibition ratio (CDKL1(h)) of 50% and an Inhibition ratio (MARK3(h)) of 0%. For the same molecule, the Inhibition ratio (SAPK2b(h)) was 12%, the Inhibition ratio (SIK3(h)) was 23% and the Inhibition ratio (SLK(h)) was 50%. For the same molecule, the Inhibition ratio (STK32B(h)) was −2%, the Inhibition ratio (CRIK(h)) was 5% and the Inhibition ratio (eEF-2K(h)) was −41%. The Inhibition ratio (NIM1(h)) was −19%, the Inhibition ratio (TTBK2(h)) was 8% and the Inhibition ratio (EphB1(h)) was 45%. The Inhibition ratio (ULK2(h)) was 13%, the Inhibition ratio (VRK2(h)) was 21% and the Inhibition ratio [3] was 33%.

Molecule C[C@H](NC(=O)c1cn(C)c2ccc(-c3ccn4nc(NC(=O)C5CC5)nc4c3)cc12)c1cccc(F)c1 [Compound 94, (S)-5-(2-(cyclopropanecarboxamido)-[1,2,4]triazolo[1,5-a]pyridin-7-yl)-N-(1-(3-fluorophenyl)ethyl)-1-methyl-1H-indole-3-carboxamide] has an Inhibition ratio/% (Flt1(h)) of 42%, an Inhibition ratio/% (Flt3(h)) of 27% and an Inhibition ratio/% (Abl(T315I)(h)) of 33%. It also gave an Inhibition ratio/% [1] of 10%, an Inhibition ratio/% [2] of −1% and an Inhibition ratio/% (GRK3(h)) of −12%. The Inhibition ratio/% (GRK6(h)) was 2%, the Inhibition ratio/% (HIPK1(h)) was 48% and the Inhibition ratio/% (IKKß(h); IKKβ(h)) was −3%. For the same molecule, the Inhibition ratio/% (PKCζ(h)) was −2%, the Inhibition ratio/% (BrSK1(h)) was 31% and the Inhibition ratio/% (IRE1(h)) was 22%. The Inhibition ratio/% (CaMKIIβ(h)) was 78%, the Inhibition ratio/% (PKG1β(h)) was 0% and the Inhibition ratio/% (PRAK(h)) was 30%. For the same molecule, the Inhibition ratio/% (Lck(h)) was 44%, the Inhibition ratio/% (ROCK-II(h)) was 7% and the Inhibition ratio/% (MAPK2(m)) was 33%. It also gave an Inhibition ratio/% (Rsk1(r)) of 20%, an Inhibition ratio/% (CDKL1(h)) of 35% and an Inhibition ratio/% (MARK3(h)) of −3%. The Inhibition ratio/% (SAPK2b(h)) was 36%, the Inhibition ratio/% (SIK3(h)) was 47% and the Inhibition ratio/% (SLK(h)) was 15%. The Inhibition ratio/% (STK32B(h)) was 27%, the Inhibition ratio/% (CRIK(h)) was −7% and the Inhibition ratio/% (eEF-2K(h)) was 26%. For the same molecule, the Inhibition ratio/% (NIM1(h)) was 10%, the Inhibition ratio/% (TTBK2(h)) was −16% and the Inhibition ratio/% (EphB1(h)) was 1%. For the same molecule, the Inhibition ratio/% (ULK2(h)) was 55%, the Inhibition ratio/% (VRK2(h)) was −18% and the Inhibition ratio/% [3] was −1%.
